Where “and” joins values, the source holds several entries; their conditions need not be identical. Equal entries are not always repeated.
Test system: cGMP-PDE I
Test: cGMP-PDE I inhibitory activity (cyclic nucleotide hydrolysis, isolated PDE isozyme)
Format: biochemical, various animal species and man
Settings: for IC50: values marked * are from two separate experimental runs
Description: Multiple isozymic forms of cyclic nucleotide phosphodiesterase (PDE) have been identified in mammalian cells. […] Elevation of intracellular cGMP in vascular smooth muscle triggers a cascade of events that leads to a reduction in muscle tone while elevations in renal tubule cell cGMP stimulates natriuresis and diuresis. Vascular smooth muscle and renal cells contain a phosphodiesterase isozyme that has a low Km (1 μM) for the hydrolysis of cGMP. This isozyme has been referred to as the cGMP-PDE or cGMP-PDE I since it elutes from an anion-exchange sepharose resin in the first peak of PDE activity at a sodium acetate concentration between 150-200 mM. Thus inhibition of the cGMP-PDE isozyme is a viable subcellular mechanism by which increases in cGMP can produce a reduction in total peripheral resistance and a stimulation of natriuresis and diuresis. The development of cGMP-PDE inhibitors represents an approach for the discovery of agents useful for treating heart failure and hypertension. For example, compounds having high inhibitory potency for the cGMP-PDE are expected to lower blood pressure and induce natriuresis and diuresis.
The cGMP-PDE and other PDE isozymes were isolated from cardiovascular tissues (heart and aorta) of various animal species and man by anion-exchange and affinity chromatography as described by Silver et al., Sec. Messeng. Phos. 13:13-25, 1991; PDE activity, in the presence and absence of test compounds was determined essentially as described by Thompson et al., Adv. Cyclic Nucleotide Res. 10:69-92. To determine the potency and selectivity of compounds as PDE inhibitors, compounds are screened for their effect on cyclic nucleotide hydrolysis at 10 μM. If ≥50% inhibition of PDE activity is observed, an IC50 value (concentration of compound causing 50% reduction in PDE activity) and corresponding 95% confidence intervals are generated. The IC50 values are calculated from concentration-response curves as described by Tallarida and Murray, Manual of Pharmacologic Calculations with Computer Programs, Procedure 8, Graded Dose-response, pp. 14-19, Springer-Verlag, N.Y., 1981.

IC50 | SMILES | Percent Inhibition cGMP-PDE I (1 μM) [%] | also measured
– | CCc1nn(C2CCCC2)c2nc(-c3cc(C)nc(-n4ccnc4)c3)[nH]c(=O)c12 [Example 120, 1-Cyclopentyl-3-ethyl-6-[2-(1-imidazolyl)-6-methyl-4-pyridyl]pyrazolo[3,4-d]pyrimidin-4-one-1/4 hydrate] | 60 | Percent Inhibition cGMP-PDE I (0.1 μM): 16%
2700 nM and 3600 nM | Cc1ccccc1Cn1nc(C)c2c(=O)[nH]c(-c3ccncc3)nc21 [Example 87] | – | –
– | CCc1[nH]n(C2CCCC2)c2nc(-c3ccncc3OCCOC)nc(=O)c1-2 [Example 131b, 1-Cyclopentyl-3-ethyl-6-(3-(2-methoxyethoxy)-4-pyridyl)pyrazolo[3,4-d]pyrimidin-4-one] | 86 | Percent Inhibition cGMP-PDE I (0.01 μM): 22%; Percent Inhibition cGMP-PDE I (0.1 μM): 61%
200 nM | Cc1nn(Cc2cccc(Cl)c2)c2nc(-c3ccncc3)[nH]c(=O)c12 [Example 81] | – | –
– | COc1cnccc1-c1nc2n(C3CCCC3)[nH]c(C(F)(F)F)c-2c(=O)n1 [Example 135, 1-Cyclopentyl-3-trifluoromethyl-6-(3-methoxy-4-pyridyl)pyrazolo[3,4-d]pyrimidin-4-one] | 88 | Percent Inhibition cGMP-PDE I (0.01 μM): 36%; Percent Inhibition cGMP-PDE I (0.1 μM): 68%
610 nM | Cc1nn(CCCCCCCC(=O)O)c2nc(-c3ccncc3)[nH]c(=O)c12 [Example 84] | – | –
– | CC(=O)N1CCC(c2nc3n(C4CCCC4)[nH]c(C)c-3c(=O)n2)CC1 [Example 115, 1-Cyclopentyl-3-methyl-6-(1-acetyl-4-piperidinyl)pyrazolo[3,4-d]pyrimidin-4-one] | 6 | Percent Inhibition cGMP-PDE I (10 μM): 51%
280 nM | CCc1[nH]n(C2CCCC2)c2nc(C3CCNc4ccccc43)nc(=O)c1-2 (stereo not shown) [Example 9, 1-Cyclopentyl-3-ethyl-6-(1,2,3,4-tetrahydro-4-quinolinyl)-pyrazolo[3,4-d]pyrimidin-4-one] | – | –
2300 nM | Cc1nn(C2CCCC2O)c2nc(-c3ccncc3)[nH]c(=O)c12 (stereo not shown) [Example 17e] | – | –
– | Cc1[nH]n(Cc2ccc(C(N)=O)cc2)c2nc(-c3ccncc3)nc(=O)c1-2 [Example 110, 1-(4-Carbamoylphenylmethyl)-3-methyl-6-(4-pyridyl)pyrazolo[3,4-d]pyrimidin-4-one] | 23 | Percent Inhibition cGMP-PDE I (10 μM): 74%
4700 nM | Cc1nn(CCCCCCC(=O)O)c2nc(-c3ccncc3)[nH]c(=O)c12 [Example 79] | – | –
– | Cc1nn(CC2CCCC2)c2nc(-c3ccncc3)[nH]c(=O)c12 [Example 89] | 17 | Percent Inhibition cGMP-PDE I (10 μM): 77%
2700 nM | Cc1nn(CCCCCC(=O)O)c2nc(-c3ccncc3)[nH]c(=O)c12 [Example 80] | – | –
260 nM | CC(C)(C)n1[nH]c(CC2CCCCC2)c2c(=O)nc(-c3ccncc3)nc1-2 [Example 5e, 1-tert-Butyl-3-(cyclohexylmethyl)-6-(4-pyridyl)-pyrazolo[3,4-d]pyrimidin-4-one] | – | –
– | Cc1[nH]n(C)c2nc(-c3ccncc3)nc(=O)c1-2 [Example 103, 1,3-Dimethyl-6-(4-pyridyl)-pyrazolo-[3,4-d]pyrimidin-4-one] | 0 | Percent Inhibition cGMP-PDE I (10 μM): 19%
– | Cc1[nH]n(C2CCCC2C)c2nc(-c3ccncc3)nc(=O)c1-2 (stereo not shown) [Example 1e, 1-(2-Methylcyclopentyl)-3-methyl-6-(4-pyridyl)pyrazolo [3,4-d]pyrimidin-4-one] | 59 | Percent Inhibition cGMP-PDE I (0.1 μM): 23%
– | O=c1[nH]c(-c2ccncc2)nc2c1c([N+](=O)[O-])nn2C1CCCC1 [Example 74] | 0 | Percent Inhibition cGMP-PDE I (10 μM): 32%
660 nM | CCc1[nH]n(C2CCCC2)c2nc(-c3ccnc(C)c3)nc(=O)c1-2 [Example 118, 1-Cyclopentyl-3-ethyl-6-(2-methyl-4-pyridyl)pyrazolo[3,4-d]pyrimidin-4-one] | 61 | Percent Inhibition cGMP-PDE I (0.1 μM): 22%
690 nM | Cc1[nH]n(C2CCCC2)c2nc(-c3cccc4cccnc34)nc(=O)c1-2 [Example 12c, 1-Cyclopentyl-3-methyl-6-(8-quinolinyl)-pyrazolo-[3,4-d]pyrimidin-4-one] | – | –

IC50 | SMILES | Percent Inhibition cGMP-PDE I (1 μM) [%] | also measured
– | CCc1nn(C2CCCC2)c2nc(C3CCN(C)c4ccccc43)[nH]c(=O)c12 (stereo not shown) [Example 10b, 1-cyclopentyl-3-ethyl-6-(1,2,3,4-tetrahydro-4-N-methyl-quinolinyl)-pyrazolo-[3,4-d]pyrimidin-4-one] | 62 | Percent Inhibition cGMP-PDE I (0.1 μM): 24%
190 nM | CCc1[nH]n(C2CCCC2)c2nc(-c3ccnc4ccccc34)nc(=O)c1-2 [Example 7c, 1-Cyclopentyl-3-ethyl-6-(4-quinolinyl)-pyrazolo[3,4-d]pyrimidin-4-one] | – | –
– | Cc1[nH]n(C2CCCC2)c2nc(-c3cc[nH]c(=O)c3)nc(=O)c1-2 [Example 126b, 1-Cyclopentyl-3-methyl-6-(2-oxo-4-pyridyl)pyrazolo[3,4-d]pyrimidin-4-one] | 32 | Percent Inhibition cGMP-PDE I (0.1 μM): 0%
– | Cc1[nH]n(Cc2cc(NS(=O)(=O)c3cccc4cccnc34)ccc2Cl)c2nc(-c3ccncc3)nc(=O)c1-2 [Example 108, 1-[2-Chloro-5-((8-quinolinylsulfonyl)amino)phenylmethyl]-3-methyl-6-(4-pyridyl)-pyrazolo[3,4-d]pyrimidin-4-one] | 38 | Percent Inhibition cGMP-PDE I (10 μM): 86%
1150 nM | O=c1[nH]c(-c2ccncc2)nc2c1c(Cl)nn2C1CCCC1 [Example 72] | – | –
– | CN(C)c1[nH]n(C2CCCC2)c2nc(-c3ccncc3)nc(=O)c1-2 [Example 20c, 1-Cyclopentyl-3-dimethylamino-6-(4-pyridyl) pyrazolo[3,4-d]pyrimidin-4-one] | 36 | Percent Inhibition cGMP-PDE I (10 μM): 70%
– | N#Cc1[nH]n(C2CCCC2)c2nc(-c3ccncc3)nc(=O)c1-2 [Example 100, 1-Cyclopentyl-3-cyano-6-(4-pyridyl)-pyrazolo-[3,4-d]pyrimidin-4-one] | 9 | Percent Inhibition cGMP-PDE I (10 μM): 35%
– | Cc1nn(CCCCCCCCC(=O)O)c2nc(-c3ccncc3)[nH]c(=O)c12 [Example 78] | 54 | –
– | COc1cnccc1-c1nc2n(C(C)(C)C)[nH]c(Cc3ccncc3)c-2c(=O)n1 [Example 134b, 1-tert-Butyl-3-(4-pyridylmethyl)-6-(3-methoxy-4-pyridyl)pyrazolo[3,4-d]pyrimidin-4-one] | – | Percent Inhibition cGMP-PDE I (0.01 μM): 35%; Percent Inhibition cGMP-PDE I (0.1 μM): 55%
– | CCc1[nH]n(C2CCCC2)c2nc(-c3ccncc3OC3CCC3)nc(=O)c1-2 [Example 130B, 1-Cyclopentyl-3-ethyl-6-(3-cyclobutyloxy-4-pyridyl)pyrazolo[3,4-d]pyrimidin-4-one] | – | Percent Inhibition cGMP-PDE I (0.01 μM): 91%
550 nM | Cc1nn(Cc2ccccc2Cl)c2nc(-c3ccncc3)[nH]c(=O)c12 [Example 82] | – | –
– | CCc1[nH]n(C2CCCC2)c2nc(-c3cc(C)nc(Cl)c3)nc(=O)c1-2 [Example 117, 1-Cyclopentyl-3-ethyl-6-(2-chloro-6-methyl-4-pyridyl)pyrazolo[3,4-d]pyrimidin-4-one] | 11 | Percent Inhibition cGMP-PDE I (10 μM): 22%
620 nM | CC(C)(C)n1[nH]c(Nc2ccccc2)c2c(=O)nc(-c3ccncc3)nc1-2 [Example 6e, 1-tert-Butyl-3-phenylamino-6-(4-pyridyl)-pyrazolo[3,4-d]-pyrimidin-4-one] | – | –
– | CCCOc1cnccc1-c1nc2n(C3CCCC3)[nH]c(CC)c-2c(=O)n1 [Example 133c, 1-Cyclopentyl-3-ethyl-6-(3-propoxy-4-pyridyl)pyrazolo[3,4-d]pyrimidin-4-one] | – | Percent Inhibition cGMP-PDE I (0.01 μM): 82%
– | CCc1[nH]n(C2CCCC2)c2nc(-c3cccc(C)n3)nc(=O)c1-2 [Example 2f, 1-cyclopentyl-3-ethyl-6-(6-methyl-2-pyridyl) -pyrazolo-[3,4-d]pyrimidin-4-one] | 7 | Percent Inhibition cGMP-PDE I (10 μM): 53%
850 nM | Cc1nn(C2CC3CCC2C3)c2nc(-c3ccncc3)[nH]c(=O)c12 (stereo not shown) [Example 91] | – | –
– | CCc1[nH]n(C2CCCC2)c2nc(-c3ccnc(N4CCOCC4)c3)nc(=O)c1-2 [Example 129c, 1-Cyclopentyl-3-ethyl-6-(2-(4-morpholinyl)-4-pyridyl)pyrazolo[3,4-d]pyrimidin-4-one] | 64 | Percent Inhibition cGMP-PDE I (0.1 μM): 35%
– | CCCCCCCCn1nc(C)c2c(=O)[nH]c(-c3ccncc3)nc21 [Example 88] | 32 | –
– | CCc1[nH]n(C2CCCC2)c2nc(C3CCNC4CCCCC43)nc(=O)c1-2 (stereo not shown) [Example 8, 1-Cyclopentyl-3-ethyl-6-(perhydro-4-quinolinyl)-pyrazolo[3,4-d]pyrimidin-4-one] | 31 | Percent Inhibition cGMP-PDE I (10 μM): 67%
